We go through nine molecules from US5808100A, “Chromene compounds and photochromic materials” (Tokuyama Corporation, priority 1995, dated 1998).

A short description of data set [1]: Photochromic properties of polymer (2 mm thick) containing the chromene compound, xenon lamp irradiation 120 seconds. In kind it is physicochemical. Details: key to Color density ε(120)-ε(0): absorbance at λmax after 120 s irradiation minus before, ε(120)-ε(0). Conditions: for Color density ε(120)-ε(0): 120 seconds irradiation, 20° C.±1° C.; for Color density ε(120)-ε(0) / ε(0): absorbancy of the polymer not irradiated (initial color): at λmax; for Color fading rate t1/2: time until absorbancy decreases to one-half of [ε(120)-ε(0)]: after 120 seconds irradiation; for Maximum absorption wavelength λMax (developed color tone): polymer after developing color. The method, then: (§1) 0.05 Parts of the chromene compound obtained in Example 1 was added to 70 parts of a tetraethylene glycol dimethacrylate, 15 parts of a triethylene glycol dimethacrylate, 10 parts of a glycidyl methacrylate and 5 parts of a 2-hydroethyl methacrylate, and was mixed to a sufficient degree. The mixture solution was poured into a mold constituted by a glass plate and a gasket made from an ethylene/vinyl acetate copolymer and then polymerized. The polymerization was conducted by using an air furnace while gradually raising the temperature up to 30° C. to 90° C. over a period of 18 hours, the temperature being maintained at 90° C. for two hours. After the polymerization, the polymer was taken out from the glass mold.
The obtained polymer (2 mm thick) was irradiated with light from a xenon lamp L-2480 (300 W) SHL-100 manufactured by Hamamatsu Photonics Co. through an Aero Mass filter (manufactured by Corning Co.) for 120 seconds under the conditions of 20° C.±1° C., beam intensities of 365 nm=2.4 mW/cm^2 and […]=24 μW/cm^2 on the polymer surface to develop color and to measure photochromic properties. The photochromic properties were expressed as described below.
Maximum absorption wavelength (λmax): λmax of the polymer after it has developed color was found by using a spectrophotometer (instantaneous multi-channel photodetector MCPD1000) manufactured by Otsuka Denshi Kogyo Co.
ε(120): Absorbancy of the polymer using light of a maximum absorption wavelength after it was irradiated under the above-mentioned conditions for 120 seconds.
ε(0): Absorbancy of the polymer that has not been irradiated using light of a wavelength same as the maximum absorption wavelength of light with which the polymer was irradiated.
ε(120)-ε(0): Color density
(§2) Color fading rate [t1/2 ]: Time required by the polymer irradiated for 120 seconds until the absorbancy decreases down to one-half of [ε(120)-ε(0)]. Durability [T1/2 ]: Time required until the absorbency at the maximum absorption wavelength decreases down to 1/2 of the initial absorbency as measured by using a xenon fadometer FAC-25AX-HC manufactured by Suga Shikenki Co.
(§3) The photochromic polymers were obtained in the same manner as described above but using the compounds obtained in Examples 2 to 33 as chromene compounds. For the purpose of comparison, properties of the compounds represented by the following formulas (A), (B), (D) and (E) were also shown in Table 3. [drawing 110]

The nature of data set [2]: Durability T1/2 by xenon fadometer FAC-25AX-HC. In kind it is physicochemical. Conditions: in polymer. The method, then: as §1, §2, §3

As for `Fc1c(C2(c3ccco3)C=Cc3c(ccc4ccccc34)O2)ccc2ccccc12` (stereo not drawn) [Compound 31], in data set [1], the “Color density ε(120)-ε(0)” value turned out to be 1.44, the “Color fading rate t1/2: time until absorbancy decreases to one-half of [ε(120)-ε(0)]” value is 1.33 min, the “ε(0): absorbancy of the polymer not irradiated (initial color)” value worked out at 0.06 and the “Maximum absorption wavelength λMax (developed color tone)” value (“Maximum absorption wavelength λMax” below) is 480 nm. Moreover, the “Durability T1/2: time until absorbancy at maximum absorption wavelength decreases to 1/2 of the initial” value in data set [2] turned out to be 490 h.

As to `C1=CC(c2ccccc2)(c2ccccc2)Oc2ccc3ccccc3c21` [A, reference compound], in data set [1], the “Color density ε(120)-ε(0)” value was 0.52, the “Color fading rate t1/2: time until absorbancy decreases to one-half of [ε(120)-ε(0)]” value was 0.667 min, the “ε(0): absorbancy of the polymer not irradiated (initial color)” value turned out to be 0.04 and the “Maximum absorption wavelength λMax” value came out at 436 nm. For the same molecule, in data set [2], the “Durability T1/2: time until absorbancy at maximum absorption wavelength decreases to 1/2 of the initial” value stood at 460 h.

As for `Fc1c(C2(c3cccs3)C=Cc3c(ccc4ccccc34)O2)ccc2ccccc12` (stereo not drawn) [Compound 1], in data set [1], the “Color density ε(120)-ε(0)” value is on record as 1.50, the “Color fading rate t1/2: time until absorbancy decreases to one-half of [ε(120)-ε(0)]” value amounted to 1.2 min, the “ε(0): absorbancy of the polymer not irradiated (initial color)” value is on record as 0.04 and the “Maximum absorption wavelength λMax” value turned out to be 456 nm. In data set [2], the “Durability T1/2: time until absorbancy at maximum absorption wavelength decreases to 1/2 of the initial” value stood at 510 h.

With `Cn1cccc1C1(c2ccc3ccccc3c2)C=Cc2c(ccc3ccccc23)O1` (stereo not drawn) [Compound 8], in data set [1], the “Color density ε(120)-ε(0)” value was 1.00, the “Color fading rate t1/2: time until absorbancy decreases to one-half of [ε(120)-ε(0)]” value was found to be 1 min, the “ε(0): absorbancy of the polymer not irradiated (initial color)” value came out at 0.06 and the “Maximum absorption wavelength λMax” value turned out to be 486 nm. Moreover, in data set [2], the “Durability T1/2: time until absorbancy at maximum absorption wavelength decreases to 1/2 of the initial” value worked out at 440 h.

In the case of `C1=CC(c2ccco2)(c2cccc3ccccc23)Oc2ccc3ccccc3c21` (stereo not drawn) [Compound 3], in data set [1], the “Color density ε(120)-ε(0)” value came to 1.49, the “Color fading rate t1/2: time until absorbancy decreases to one-half of [ε(120)-ε(0)]” value was 1.38 min, the “ε(0): absorbancy of the polymer not irradiated (initial color)” value is reported as 0.08 and the “Maximum absorption wavelength λMax” value was 496 nm. The “Durability T1/2: time until absorbancy at maximum absorption wavelength decreases to 1/2 of the initial” value in data set [2] turned out to be 480 h.

In the case of `C1=CC(c2ccco2)(c2cc3ccccc3o2)Oc2ccc3ccccc3c21` (stereo not drawn) [Compound 25], in data set [1], the “Color density ε(120)-ε(0)” value is listed as 1.23, the “Color fading rate t1/2: time until absorbancy decreases to one-half of [ε(120)-ε(0)]” value amounted to 0.983 min, the “ε(0): absorbancy of the polymer not irradiated (initial color)” value was found to be 0.06 and the “Maximum absorption wavelength λMax” value came to 492 nm. Moreover, the “Durability T1/2: time until absorbancy at maximum absorption wavelength decreases to 1/2 of the initial” value in data set [2] was found to be 540 h.

Consider `COc1ccc2ccc3c(c2c1)C=CC(c1ccco1)(c1coc2ccccc12)O3` (stereo not drawn) [Compound 14], for which, in data set [1], the “Color density ε(120)-ε(0)” value amounted to 1.06, the “Color fading rate t1/2: time until absorbancy decreases to one-half of [ε(120)-ε(0)]” value turned out to be 1 min, the “ε(0): absorbancy of the polymer not irradiated (initial color)” value is listed as 0.07 and the “Maximum absorption wavelength λMax” value was found to be 484 nm. Moreover, in data set [2], the “Durability T1/2: time until absorbancy at maximum absorption wavelength decreases to 1/2 of the initial” value was 480 h.

On to `Cc1csc(C2(c3scc(C)c3C)C=Cc3c(ccc4ccccc34)O2)c1C` [E, reference compound], for which, in data set [1], the “Color density ε(120)-ε(0)” value was 0.86, the “Color fading rate t1/2: time until absorbancy decreases to one-half of [ε(120)-ε(0)]” value stood at 1.25 min, the “ε(0): absorbancy of the polymer not irradiated (initial color)” value worked out at 0.26 and the “Maximum absorption wavelength λMax” value is 514 nm. Further, the “Durability T1/2: time until absorbancy at maximum absorption wavelength decreases to 1/2 of the initial” value in data set [2] is 485 h.

`COc1ccc2c3c(ccc2c1)OC(c1cncs1)(c1cscc1C)C=C3` (stereo not drawn) [Compound 19]: in data set [1], the “Color density ε(120)-ε(0)” value is 1.46, the “Color fading rate t1/2: time until absorbancy decreases to one-half of [ε(120)-ε(0)]” value was found to be 1.25 min, the “ε(0): absorbancy of the polymer not irradiated (initial color)” value came to 0.06 and the “Maximum absorption wavelength λMax” value is 490 nm. Besides, in data set [2], the “Durability T1/2: time until absorbancy at maximum absorption wavelength decreases to 1/2 of the initial” value is 450 h.
